Test results from patent publication US10576086B2, “Triazine derivatives as interferon-gamma inhibitors” (University of Greenwich, priority 2015, dated 2020).
Where two headings read alike, the source gives them in different places.

How the values were obtained:
[1] = test system: IFN-γ production in human peripheral blood mononuclear cells (PBMCs); assay: Experiment 2: IFN-γ production by PHA-stimulated human PBMCs, ELISA; format: cell-based; settings: for [IFN-γ]: PHA 5 μg/ml; for inhibition of IFN-γ production in PBMCs (in words): Experiment 2, human PBMCs; for IC50: human PBMCs, PHA-stimulated, read-out: IC50 (concentration to inhibit IFN-γ production by 50%)
Method: A similar set of tests were carried out, in which three compounds known as CEN-079(3,5-diamino-6-[2-(3,4,5-trichlorothienyl)]-1,2,4-triazine), CEN-092(3,5-diamino-6-(3,5-bistrifluoromethylphenyl)-1,2,4-triazine) and CEN-216(3,5-diamino-6-(2,3-dichlorophenyl)-2,3(2,5)-dihydro-3(5)-imino-2-(2,2,2-trichloroethyl)-1,2,4-triazine) were compared with lamotrigine. CEN-079, CEN-092 and CEN-216 are within the scope of Formulae 1, 2 and 3.
50 ml of blood from three healthy adult donors was collected by venepuncture in heparinised tubes. The blood samples where centrifuged at 3000 rpm for 15 minutes. The supernatant plasma was collected in a centrifuge tube, and centrifuged at 3000 rpm for a further 10 minutes. The supernatant was then collected in a plain tube, and stored at −70° C. for future use.
The cells from the first centrifuged heparinised tube were diluted 1:1 in RPMI-1640, and mixed by multiple inversions. The cell mixture was then slowly layered, using a sterile plastic 3 ml pipette, along a tube wall containing lymphoprep (Nycomed) at a ratio of 2:1 cells/RPMI-1640:Lymphoprep in a 25 ml universal tube. The mixture was centrifuged at 2400 rpm for 30 minutes, and left to stand for 20 minutes. PBMCs were slowly removed from the interface using a sterile plastic pipette, and collected in a 15 ml centrifuge tube.
The cells were washed twice by diluting in RPMI-1640 with 2 mM L-glutamine, 100 U/ml penicillin and 100 μg/ml streptomycin at a ratio of 1:1. The mixture was centrifuged at 3000 rpm for 15 minutes, and the supernatant decanted. PBMCs were then diluted in RPMI-1640 containing 2 mM L-glutamine, 100 U/ml penicillin and 100 μg streptomycin, to make up a volume of 6 ml for subjects 1 and 2, and 9 ml for subject 3.
Cells were counted using an Improved Neubauer haemocytometer (Hawksley, UK) on a light microscope. 10 μl of cell suspension was loaded onto the haemocytometer using a sterile plastic pipette. Cells were counted in five out of 25 1 mm squares, from which the total cell count was calculated.
5 μg/ml PHA was used as a T cell activating agent for the production of IFN-γ. The PBMCs were treated with the four test compounds (lamotrigine, CEN-079, CEN-092, CEN-216) at concentrations of 10 μM, 30 μM and 300 μM to assess their effects on IFN-γ production by the stimulated T cells.
The tests were carried out as for Experiment 1, in which 2×10^6 PBMC/ml, 25 μl of 5% autologous plasma, and 2.63 μl of 5 μg/ml PHA were used. Test compound at each concentration was then added, except for one control case.
10 μM solutions were obtained by adding 1.05 μl of a 5 mM solution of the compounds to the above PBMC-containing solution. 30 μM solutions were obtained by adding 3.15 μl of the 5 mM solution of the compounds. 300 μM solutions were obtained by adding […] solutions of the compounds.
The tubes were covered, gently shaken to mix the contents, and incubated for 24 hours at 37° C. The tubes were then centrifuged at 2500 rpm for 10 minutes. The supernatant was collected in a 3 ml plastic pipette, and aliquots were stored at −70° C. before being analysed.
The test was performed according to the supplier's instructions. Donor samples were diluted 1:1 in phosphate buffered […] (PBS) and assayed simultaneously with IFN-γ standard samples, in duplicate. The standard curve ranged from 15.6 pg/ml to 1000 pg/ml.
A 96-well multiwell microplate (high binding Costar) was prepared, by diluting a capture antibody (720 μg/ml of mouse anti-human IFN-γ) in PBS to a working concentration of 4.0 μg/ml. 100 μl was immediately coated on each well, and left overnight at room temperature. The wells were washed three times in wash buffer, using microplate autowasher (LT-3000, LabTech International Ltd). The remainder of the wash buffer in the wells was removed by blotting on to clean paper towels. The plate was blocked by adding 300 μl Block buffer (1% BSA in PBS) to each well and incubated at room temperature for 1 hour. […]

[2] = test system: IFN-γ production in human peripheral blood mononuclear cells (PBMCs); assay: Experiment 1: IFN-γ production by PHA-stimulated human PBMCs, ELISA; format: cell-based; settings: for IFN-γ Concentration, Mean: mean of first three subjects, 24 h
Method: The ex vivo activity of various compounds towards suppression of IFN-γ production in human peripheral blood mononuclear cells (PBMCs) was studied.
[…] They were not taking any other prescribed medication that could interfere with the results.
The blood was transferred into 50 ml centrifuge tubes (Corning, USA) containing heparin sodium salt 37.5 mg heparin powder diluted in 300-500 μl phosphate buffered saline (PBS) for 50 ml blood), and centrifuged at 2000 rpm for 10 minutes, and the plasma portion was separated. The plasma was further centrifuged at 3000 rpm for 10 minutes, and the supernatant separated and kept for later use.
The blood cells from the initial centrifugation were diluted with an equal volume of RPMI-1640 (Sigma, UK), and layered (2:1) onto Lymphoprep (Axis-Shield, Norway) in 25 ml universal tubes (Bibby Sterilin, UK) for density gradient centrifugation at 2500 rpm for 30 minutes.
PBMCs (lymphocytes and monocytes) were then removed from the interface, diluted in an equal volume of RPMI-1640 and washed twice by centrifugation at 3000 rpm for 10 minutes.
For testing, the PBMCs were re-suspended in a known volume of culture medium containing RPMI-1640 supplemented with 2 mM L-glutamine, 100 U penicillin, and 100 μg streptomycin (Sigma, UK).
The cell count was determined by the use of a haemocytometer using 10 μl of the cell suspension. The number of cells was determined based on a count in 5 random 1 mm squares.
The cell solution was then diluted with the supplemented RPMI-1640 medium to ensure a cell count of 2×10^6 cells/ml.
The PBMC suspension was added to tissue culture tubes (Bibby Sterilin, UK) with 5% autologous plasma, 5 μg/mlphytohaemaglutinin (PHA) to stimulate T-lymphocyte IFN-γ production, and a solution containing various concentrations of the compound to be studied. A control containing no compound was also cultured for each subject.
In the case of lamotrigine, the isethionate salt was used, and diluted with RPMI-1640 to produce 100 μM, 30 μM, 10 μM and 3 μM solutions that were tested on PBMCs from the first three subjects. With PBMC's from the other two subjects, a 300 μM solution was also tested.
For sipatrigine, the mesylate salt was used, and diluted with RPMI-1640 to produce 30 μM, 10 μM, 3 μM and 1 μM solutions. It was tested on PBMCs from the first three subjects only.
The tubes were incubated at 37° C. for 24 hours under a 5% CO2 atmosphere. After incubation, the cells (>75% viable according to trypan blue test) were centrifuged at 3000 prm for 10 minutes, and the cell-free supernatants were collected and stored at −70° C. before analysis for IFN-γ.
Levels of IFN-γ produced by the PBMCs were determined by the DuoSet ELISA Development system for human IFN-γ (RD Systems, UK), with a sensitivity of 15.6-1000 pg/ml.
Capture antibody, detection antibody, standard and streptavidin-HRP (streptavidin conjugated to horseradish peroxidase) were provided. A 96-well microtitre plate (Corning CoStar, flat bottom, polystyrene, high binding microtitre plate, UK) was coated with 100 μl per well of capture antibody (mouse anti-human IFN-γ at 4.0 μg/ml), sealed and incubated overnight. Unbound capture antibody was washed from the wells three times, using a wash buffer (0.05% Tween 20 in PBS). Block buffer (1% bovine serum albumin (BSA) in PBS) was then added. After incubation for 1 hour, the wells were washed, and sample culture supernatants or standards were added. A 7-point standard curve (in the range 15.6-1000 pg/ml) was produced from […] recombinant human IFN-γ using 2-fold serial dilutions in reagent diluent (0.1% BSA, 0.05% Tween 20 in tris-buffered saline (20 mM Trizma base, 150 mM NaCl)). The sealed plates were left to incubate for 2 hours.
After further washing, the detection antibody (biotinylated goat anti-human IFN-γ at 175 ng/ml) was added, and the plates sealed and incubated for a further 2 hours. […]

Nc1nnc(-c2cc(C(F)(F)F)cc(C(F)(F)F)c2)c(N)n1 [CEN-092, 3,5-diamino-6-(3,5-bistrifluoromethylphenyl)-1,2,4-triazine]
[IFN-γ] vs control ([1]; 10 μM, Subject 1, 24 h): 16.1%
[IFN-γ] ([1]; 10 μM, Subject 1, 24 h): 112.5 pg/mL
[IFN-γ] vs control ([1]; 10 μM, Subject 2, 24 h): 36.0%
[IFN-γ] ([1]; 10 μM, Subject 2, 24 h): 728.5 pg/mL
[IFN-γ] vs control ([1]; 10 μM, Subject 3, 24 h): 19.9%
[IFN-γ] ([1]; 10 μM, Subject 3, 24 h): 423.5 pg/mL
[IFN-γ] vs control ([1]; 30 μM, Subject 1, 24 h): 7.4%
[IFN-γ] ([1]; 30 μM, Subject 1, 24 h): 52.0 pg/mL
[IFN-γ] vs control ([1]; 30 μM, Subject 2, 24 h): 24.6%
[IFN-γ] ([1]; 30 μM, Subject 2, 24 h): 499.0 pg/mL
[IFN-γ] vs control ([1]; 30 μM, Subject 3, 24 h): 4.3%
[IFN-γ] ([1]; 30 μM, Subject 3, 24 h): 91.5 pg/mL
[IFN-γ] vs control ([1]; 300 μM, Subject 1, 24 h): 0.0%
[IFN-γ] ([1]; 300 μM, Subject 1, 24 h): 0.00 pg/mL
[IFN-γ] vs control ([1]; 300 μM, Subject 2, 24 h): 0.0%
[IFN-γ] ([1]; 300 μM, Subject 2, 24 h): 0.0 pg/mL
[IFN-γ] vs control ([1]; 300 μM, Subject 3, 24 h): 6.9%
[IFN-γ] ([1]; 300 μM, Subject 3, 24 h): 146.0 pg/mL
inhibition of IFN-γ production in PBMCs (in words) [1]: significantly more effective inhibitors compared to lamotrigine
IC50 ([1]; PBMC): 3 µM

N=c1nc(N)c(-c2cccc(Cl)c2Cl)nn1CC(Cl)(Cl)Cl [CEN-216, 5(3)-Amino-6-(2,3-dichlorophenyl)-2,3(2,5)-dihydro-3(5)-imino-2-(2,2,2-trichloroethyl)-1,2,4-triazine]
[IFN-γ] vs control ([1]; 10 μM, Subject 1, 24 h): 0.0%
[IFN-γ] ([1]; 10 μM, Subject 1, 24 h): 0.00 pg/mL
[IFN-γ] vs control ([1]; 10 μM, Subject 2, 24 h): 9.2%
[IFN-γ] ([1]; 10 μM, Subject 2, 24 h): 187.0 pg/mL
[IFN-γ] vs control ([1]; 10 μM, Subject 3, 24 h): 3.9%
[IFN-γ] ([1]; 10 μM, Subject 3, 24 h): 82.0 pg/mL
[IFN-γ] vs control ([1]; 30 μM, Subject 1, 24 h): 0.0%
[IFN-γ] ([1]; 30 μM, Subject 1, 24 h): 0.00 pg/mL
[IFN-γ] vs control ([1]; 30 μM, Subject 2, 24 h): 2.9%
[IFN-γ] ([1]; 30 μM, Subject 2, 24 h): 59.0 pg/mL
[IFN-γ] vs control ([1]; 30 μM, Subject 3, 24 h): 5.7%
[IFN-γ] ([1]; 30 μM, Subject 3, 24 h): 122.0 pg/mL
[IFN-γ] vs control ([1]; 300 μM, Subject 1, 24 h): 0.0%
[IFN-γ] ([1]; 300 μM, Subject 1, 24 h): 0.00 pg/mL
[IFN-γ] vs control ([1]; 300 μM, Subject 2, 24 h): 0.0%
[IFN-γ] ([1]; 300 μM, Subject 2, 24 h): 0.0 pg/mL
[IFN-γ] vs control ([1]; 300 μM, Subject 3, 24 h): 0.0%
[IFN-γ] ([1]; 300 μM, Subject 3, 24 h): 0.0 pg/mL
inhibition of IFN-γ production in PBMCs (in words) [1]: significantly more effective inhibitors compared to lamotrigine

Nc1nnc(-c2sc(Cl)c(Cl)c2Cl)c(N)n1 [CEN-079, 3,5-diamino-6-[2-(3,4,5-trichlorothienyl)]-1,2,4-triazine]
[IFN-γ] vs control ([1]; 10 μM, Subject 1, 24 h): 22.1%
[IFN-γ] ([1]; 10 μM, Subject 1, 24 h): 154.5 pg/mL
[IFN-γ] vs control ([1]; 10 μM, Subject 2, 24 h): 36.9%
[IFN-γ] ([1]; 10 μM, Subject 2, 24 h): 757.5 pg/mL
[IFN-γ] vs control ([1]; 10 μM, Subject 3, 24 h): 28.7%
[IFN-γ] ([1]; 10 μM, Subject 3, 24 h): 611.5 pg/mL
[IFN-γ] vs control ([1]; 30 μM, Subject 1, 24 h): 7.60%
[IFN-γ] ([1]; 30 μM, Subject 1, 24 h): 53 pg/mL
[IFN-γ] vs control ([1]; 30 μM, Subject 2, 24 h): 1.80%
[IFN-γ] ([1]; 30 μM, Subject 2, 24 h): 178.5 pg/mL
[IFN-γ] vs control ([1]; 30 μM, Subject 3, 24 h): 2.0%
[IFN-γ] ([1]; 30 μM, Subject 3, 24 h): 41.5 pg/mL
[IFN-γ] vs control ([1]; 300 μM, Subject 1, 24 h): 0.0%
[IFN-γ] ([1]; 300 μM, Subject 1, 24 h): 0.00 pg/mL
[IFN-γ] vs control ([1]; 300 μM, Subject 2, 24 h): 0.0%
[IFN-γ] ([1]; 300 μM, Subject 2, 24 h): 0.0 pg/mL
[IFN-γ] vs control ([1]; 300 μM, Subject 3, 24 h): 0.0%
[IFN-γ] ([1]; 300 μM, Subject 3, 24 h): 0.0 pg/mL
inhibition of IFN-γ production in PBMCs (in words) [1]: significantly more effective inhibitors compared to lamotrigine
IC50 [1]: 6 µM

CN1CCN(c2ncc(-c3cc(Cl)cc(Cl)c3Cl)c(N)n2)CC1 [Sipatrigine, 4-amino-2-(4-methyl-1-piperazinyl)-(2,3,5-trichlorophenyl)-pyrimidine]
IFN-γ Concentration, Mean ([2]; 1 μM): 1275.07 pg/mL
IFN-γ Concentration, Mean ([2]; 3 μM): 1227.27 pg/mL
IFN-γ Concentration, Mean ([2]; 10 μM): 1331.70 pg/mL
IFN-γ Concentration, Mean ([2]; 30 μM): 892.89 pg/mL
inhibition of IFN-γ production (in words) ([2]; Experiment 1, human PBMCs): did not inhibit IFN-γ production
